# Measurements reported in ChEMBL document CHEMBL1127063, “NMR and computational evidence that high-affinity bradykinin receptor antagonists adopt C-terminal beta-turns” (J Med Chem, 1993).
# Legend:
# Cavia porcellus = species on record: Cavia porcellus; test: pA2 value against guinea pig ileum.; format: functional; conditions: read-out: pA2 (converted)
# B2 bradykinin receptor = target: T1, B2 bradykinin receptor (Cavia porcellus, UniProt O70526); test: In vitro binding affinity against bradykinin receptor B2 from guinea pig ileum.; format: tissue-based
# T1 sequence (O70526 whole entry): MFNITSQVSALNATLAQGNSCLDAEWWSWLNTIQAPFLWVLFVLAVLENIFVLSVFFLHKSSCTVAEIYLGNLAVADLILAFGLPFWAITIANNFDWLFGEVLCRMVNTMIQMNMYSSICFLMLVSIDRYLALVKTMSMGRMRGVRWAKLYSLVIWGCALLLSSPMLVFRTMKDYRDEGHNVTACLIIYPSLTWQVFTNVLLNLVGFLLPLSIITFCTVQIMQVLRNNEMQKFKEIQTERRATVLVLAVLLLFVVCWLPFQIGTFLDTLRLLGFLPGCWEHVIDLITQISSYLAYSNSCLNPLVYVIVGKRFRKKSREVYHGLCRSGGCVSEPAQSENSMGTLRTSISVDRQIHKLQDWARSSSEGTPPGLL
Ki (B2 bradykinin receptor),Structure (SMILES),Kb (Cavia porcellus)
0.11 nM,NC(N)=NCCC[C@@H](N)C(=O)N[C@@H](CCCN=C(N)N)C(=O)N1CCC[C@H]1C(=O)N1C[C@H](O)C[C@H]1C(=O)NCC(=O)N[C@@H](Cc1cccs1)C(=O)N[C@@H](CO)C(=O)N1Cc2ccccc2C[C@@H]1C(=O)N1[C@H](C(=O)N[C@@H](CCCN=C(N)N)C(=O)O)C[C@@H]2CCCC[C@@H]21 [ICATIBANT],2 nM
0.75 nM,NC(N)=NCCC[C@@H](N)C(=O)N[C@@H](CCCN=C(N)N)C(=O)N1CCC[C@H]1C(=O)N1CCC[C@H]1C(=O)NCC(=O)N[C@@H](Cc1ccccc1)C(=O)N[C@@H](CO)C(=O)N[C@H](Cc1ccccc1)C(=O)N1C2CCCCC2C[C@H]1C(=O)N[C@@H](CCCN=C(N)N)C(=O)O (stereo partly specified),5.01 nM
0.16 nM,CCCO[C@H]1C[C@H](C(=O)N2[C@H](C(=O)N[C@@H](CCCNC(=N)N)C(=O)O)C[C@@H]3CCCC[C@@H]32)N(C(=O)[C@H](CO)NC(=O)[C@H](Cc2cccs2)NC(=O)CNC(=O)[C@@H]2C[C@@H](O)CN2C(=O)[C@@H]2CCCN2C(=O)[C@H](CCCNC(=N)N)NC(=O)[C@H](N)CCCNC(=N)N)C1,3.16 nM
